Source: patent publication US20170283834A1, “Processes for Producing A Fermentation Product Using A Fermenting Organism” (Novozymes A/S, priority 2014, published 2017)
Where a chain is given by its changes, count along the chain named. In names and notes the source's numbering stands. Several values for one entry are separate records, joined by “and”; a condition that tells them apart may be missing. Identical values can stand only once.

How the values were obtained:
[1] = system: Ethanol Red™; assay: Addition of benzoate, propionate and formate to ethanol fermentations (SSF of corn mash); assay type: cell-based, Saccharomyces cerevisiae; settings: for Glycerol pH 3.8 (w/v %) / Glycerol pH 5 (w/v %) / ETOH pH 3.8 (w/v %) / ETOH pH 5 (w/v %) / % Boost over no added acid: 54 hours; for % Boost over no added acid: ethanol; for % Change from no added acid: glycerol
Description: Industrially prepared corn mash was obtained from Lincolnland (Liquozyme™ SODS liquefaction).
After 15 minutes, the flasks were swirled, but no other agitation took place.
The pH after liquefaction was 4.9 and was adjusted to various pHs for SSF. […] Glucoamylase SA (“GSA”)/Cellulase VD (“CVD”) enzyme blend was dosed to each tube of mash at 110 μg EP GSA/gDS and 30 μg EP CVD/gDS. […] Benzoic acid was added in the range of 0-0.8 mM. Propionic and Formic acid were added in the range of 0-30 mM. All acid additions were done prior to inoculation (i.e., before exponential growth).
Each tube was processed for HPLC analysis by deactivation with 150 μL of 40% v/v H2SO4, vortexing, centrifuging at 1460×g for 10 minutes, and filtering through a 0.45 μm Whatman PP filter. All samples were processed without further dilution.

[2] = system: zein; assay: Relative activity assay of protease variants (zein micro titer plate); assay type: biochemical
Summary of the method: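 Yeast culture supernatants (3 days, 28 °C) incubated over 4 h or overnight on zein-agar plates (pH 4.5 acetate, 0.25 mM ZnSO4) at two temperatures. Zein turbidity read at A630; higher/lower-temperature activity ratio gives relative thermoactivity.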

[3] = acid Concentration 10 (mM), pH 3.8
[4] = acid Concentration 10 (mM), pH 5
[5] = acid Concentration 20 (mM), pH 3.8
[6] = acid Concentration 20 (mM), pH 5
[7] = acid Concentration 30 (mM), pH 3.8
[8] = acid Concentration 30 (mM), pH 5
[9] = acid Concentration 0.2 (mM), pH 3.8
[10] = acid Concentration 0.2 (mM), pH 5
[11] = acid Concentration 0.5 (mM), pH 3.8
[12] = acid Concentration 0.5 (mM), pH 5
[13] = acid Concentration 0.8 (mM), pH 3.8
[14] = acid Concentration 0.8 (mM), pH 5

With `O=CO` [Formic Acid, formic acid] the “effect of acid addition on fermentation performance” value [1] was “boost”, the “Glycerol pH 3.8 (w/v %)” value ([1]; Concentration 10 mM, pH 3.8) was 1.078 w/v % and the “Glycerol pH 5 (w/v %)” value ([1]; Concentration 10 mM, pH 5) was 1.175 w/v %. The “Glycerol pH 3.8 (w/v %)” value ([1]; Concentration 20 mM, pH 3.8) was 1.070 w/v %, the “Glycerol pH 5 (w/v %)” value ([1]; Concentration 20 mM, pH 5) was 1.117 w/v % and the “Glycerol pH 3.8 (w/v %)” value ([1]; Concentration 30 mM, pH 3.8) was 0.966 w/v %. For the same molecule, the “Glycerol pH 5 (w/v %)” value ([1]; Concentration 30 mM, pH 5) was 1.111 w/v %, the “ETOH pH 3.8 (w/v %)” value [1, 3] was 13.69 w/v % and the “ETOH pH 5 (w/v %)” value [1, 4] was 13.1 w/v %. For the same molecule, the “ETOH pH 3.8 (w/v %)” value [1, 5] was 13.41 w/v %, the “ETOH pH 5 (w/v %)” value [1, 6] was 13.22 w/v % and the “ETOH pH 3.8 (w/v %)” value [1, 7] was 6.458 w/v %. The “ETOH pH 5 (w/v %)” value [1, 8] was 13.2 w/v %, the “% Boost over no added acid” value [1, 3] was 2.45% and the “% Boost over no added acid” value [1, 4] was 0.94%. For the same molecule, the “% Boost over no added acid” value [1, 5] was 0.31%, the “% Boost over no added acid” value [1, 6] was 1.84% and the “% Boost over no added acid” value [1, 7] was −51.69%. For the same molecule, the “% Boost over no added acid” value [1, 8] was 1.70%, the “% Change from no added acid” value ([1]; Concentration 10 mM, pH 3.8) was −17.68% and the “% Change from no added acid” value ([1]; Concentration 10 mM, pH 5) was −12.49%. The “% Change from no added acid” value ([1]; Concentration 20 mM, pH 3.8) was −18.24%, the “% Change from no added acid” value ([1]; Concentration 20 mM, pH 5) was −16.81% and the “% Change from no added acid” value ([1]; Concentration 30 mM, pH 3.8) was −26.19%. The “% Change from no added acid” value ([1]; Concentration 30 mM, pH 5) was −17.26%.

For `CCC(=O)O` [Propionic Acid, propionic acid], the “Glycerol pH 3.8 (w/v %)” value ([1]; Concentration 10 mM, pH 3.8) was 0.985 w/v %, the “Glycerol pH 5 (w/v %)” value ([1]; Concentration 10 mM, pH 5) was 1.017 w/v % and the “Glycerol pH 3.8 (w/v %)” value ([1]; Concentration 20 mM, pH 3.8) was 0.896 w/v %. For the same molecule, the “Glycerol pH 5 (w/v %)” value ([1]; Concentration 20 mM, pH 5) was 0.927 w/v %, the “Glycerol pH 3.8 (w/v %)” value ([1]; Concentration 30 mM, pH 3.8) was 0.654 w/v % and the “Glycerol pH 5 (w/v %)” value ([1]; Concentration 30 mM, pH 5) was 0.874 w/v %. The “ETOH pH 3.8 (w/v %)” value [1, 3] was 13.2 w/v %, the “ETOH pH 5 (w/v %)” value [1, 4] was 13.26 w/v % and the “ETOH pH 3.8 (w/v %)” value [1, 5] was 11.67 w/v %. For the same molecule, the “ETOH pH 5 (w/v %)” value [1, 6] was 12.87 w/v %, the “ETOH pH 3.8 (w/v %)” value [1, 7] was 3.064 w/v % and the “ETOH pH 5 (w/v %)” value [1, 8] was 11.8064 w/v %. For the same molecule, the “% Boost over no added acid” value [1, 3] was −1.27%, the “% Boost over no added acid” value [1, 4] was 2.2% and 2.21% and the “% Boost over no added acid” value [1, 5] was −12.7%. The “% Boost over no added acid” value [1, 6] was −0.84%, the “% Boost over no added acid” value [1, 7] was −77.08% and the “% Boost over no added acid” value [1, 8] was −9.03%. For the same molecule, the “% Change from no added acid” value ([1]; Concentration 10 mM, pH 3.8) was −24.78%, the “% Change from no added acid” value ([1]; Concentration 10 mM, pH 5) was −24.26% and the “% Change from no added acid” value ([1]; Concentration 20 mM, pH 3.8) was −31.55%. The “% Change from no added acid” value ([1]; Concentration 20 mM, pH 5) was −30.95%, the “% Change from no added acid” value ([1]; Concentration 30 mM, pH 3.8) was −50.02% and the “% Change from no added acid” value ([1]; Concentration 30 mM, pH 5) was −34.94%. For the same molecule, the “effect on ethanol production at pH 3.8” value ([1]; pH 3.8) was “negative effect”.

For `O=C(O)c1ccccc1` [Benzoic Acid, benzoic acid], the “effect of acid addition on fermentation performance” value [1] was “increases fermentation performance”, the “Glycerol pH 3.8 (w/v %)” value ([1]; Concentration 0.2 mM, pH 3.8) was 1.159 w/v % and the “Glycerol pH 5 (w/v %)” value ([1]; Concentration 0.2 mM, pH 5) was 1.160 w/v %. For the same molecule, the “Glycerol pH 3.8 (w/v %)” value ([1]; Concentration 0.5 mM, pH 3.8) was 1.091 w/v %, the “Glycerol pH 5 (w/v %)” value ([1]; Concentration 0.5 mM, pH 5) was 1.127 w/v % and the “Glycerol pH 3.8 (w/v %)” value ([1]; Concentration 0.8 mM, pH 3.8) was 1.041 w/v %. For the same molecule, the “Glycerol pH 5 (w/v %)” value ([1]; Concentration 0.8 mM, pH 5) was 1.093 w/v %, the “ETOH pH 3.8 (w/v %)” value [1, 9] was 13.73 w/v % and the “ETOH pH 5 (w/v %)” value [1, 10] was 13.01 w/v %. The “ETOH pH 3.8 (w/v %)” value [1, 11] was 13.6785 w/v %, the “ETOH pH 5 (w/v %)” value [1, 12] was 13.23 w/v % and the “ETOH pH 3.8 (w/v %)” value [1, 13] was 13.35 w/v %. The “ETOH pH 5 (w/v %)” value [1, 14] was 13.39 w/v %, the “% Boost over no added acid” value [1, 9] was 2.70% and the “% Boost over no added acid” value [1, 10] was 0.27%. For the same molecule, the “% Boost over no added acid” value [1, 11] was 2.33%, the “% Boost over no added acid” value [1, 12] was 1.96% and the “% Boost over no added acid” value [1, 13] was −0.12%. For the same molecule, the “% Boost over no added acid” value [1, 14] was 3.20%, the “% Change from no added acid” value ([1]; Concentration 0.2 mM, pH 3.8) was −11.47% and the “% Change from no added acid” value ([1]; Concentration 0.2 mM, pH 5) was −13.60%. For the same molecule, the “% Change from no added acid” value ([1]; Concentration 0.5 mM, pH 3.8) was −16.65%, the “% Change from no added acid” value ([1]; Concentration 0.5 mM, pH 5) was −16.08% and the “% Change from no added acid” value ([1]; Concentration 0.8 mM, pH 3.8) was −20.45%. The “% Change from no added acid” value ([1]; Concentration 0.8 mM, pH 5) was −18.58%.

B1: JTP181: protease variant of SEQ ID NO: 3: D79L Y82F S87G Y97W D104P A112P D142L (protein, listed as Thermoascus aurantiacus)
chain: MRLVASLTALVALSVPVFPAAVNVKRASSYLEITLSQVSNTLIKAVVQNTGSDELSFVHLNFFKDPAPVKKVSVYRDGSEVQFEGILSRYKSTGLSRDAFTYLAPGESVEDVFDIASTYDLTSGGPVTIRTEGVVPYATANSTDIAGYISYSSNVLTIDVDGAAAATVSKAITPLDRRTRISSCSGSRQSALTTALRNAASLANAAADAAQSGSASKFSEYFKTTSSSTRQTVAARLRAVAREASSSSSGATTYYCLDPFGYCSGNVLAYTLPSWNIIANCPIFYTYLPPLTSTCHAQDQATTALHEFTHAPGVYSPGTLDLAYGYQAAMGLSSSQAVMNADTYALYANAIYLGC
In the case of B1, the “Relative activity 80° C./70° C.” value ([2]; Table 5, upper part) is reported as 45%.

B2: JTP189: protease variant of SEQ ID NO: 3: D79L Y82F S87G A112P A126V D142L (protein, listed as Thermoascus aurantiacus)
chain: B1 chain with W275Y, P282D, A304V
B2 was tested, and the “Relative activity 80° C./70° C.” value ([2]; Table 5, upper part) was 46%.

B3: JTP134: protease variant of SEQ ID NO: 3: D79L Y82F S87P A112P D142L (protein, listed as Thermoascus aurantiacus)
chain: B1 chain with G265P, W275Y, P282D
With B3 the “Relative activity 80° C./70° C.” value ([2]; Table 5, upper part) was 40%.

B4: JTP187: protease variant of SEQ ID NO: 3: S70V D79L Y82F S87G A112P D142L (protein, listed as Thermoascus aurantiacus)
chain: B1 chain with S248V, W275Y, P282D
In the case of B4, the “Relative activity 80° C./70° C.” value ([2]; Table 5, upper part) is reported as 45%.

B5: JTP193: protease variant of SEQ ID NO: 3: Y82F S87G S70V D79L D104P A112P D142L (protein, listed as Thermoascus aurantiacus)
chain: B1 chain with S248V, W275Y
B5 was tested, and the “Relative activity 85° C./70° C.” value ([2]; Table 5, upper part) was 15%.

B6: JTP194: protease variant of SEQ ID NO: 3: Y82F S87G D79L D104P A112P A126V D142L (protein, listed as Thermoascus aurantiacus)
chain: B1 chain with W275Y, A304V
With B6 the “Relative activity 85° C./70° C.” value ([2]; Table 5, upper part) was 22%.

B7: JTP213: protease variant of SEQ ID NO: 3: A27K Y82F D104P A112P A126V D142L (protein, listed as Thermoascus aurantiacus)
chain: B1 chain with A205K, L257D, G265S, W275Y, A304V
In the case of B7, the “Relative activity 75° C./70° C.” value ([2]; Table 5, lower part) is reported as 103% and the “Relative activity 80° C./70° C.” value ([2]; Table 5, lower part) is reported as 37%.

B8: JTP211: protease variant of SEQ ID NO: 3: A27K D79L Y82F D104P A112P A126V D142L (protein, listed as Thermoascus aurantiacus)
chain: B1 chain with A205K, G265S, W275Y, A304V
B8 was tested, and the “Relative activity 75° C./70° C.” value ([2]; Table 5, lower part) was 94% and the “Relative activity 80° C./70° C.” value ([2]; Table 5, lower part) was 44%.

B9: JTP210: protease variant of SEQ ID NO: 3: A27K Y82F S87G D104P A112P A126V D142L (protein, listed as Thermoascus aurantiacus)
chain: B1 chain with A205K, L257D, W275Y, A304V
With B9 the “Relative activity 75° C./70° C.” value ([2]; Table 5, lower part) was 107% and the “Relative activity 80° C./70° C.” value ([2]; Table 5, lower part) was 36%.
